In US11731961B2, “Phenyl propionic acid derivatives and uses thereof” (ILDONG PHARMACEUTICAL CO., LTD., priority 2016, dated 2023):

These compounds were tested against T1, GPR40 (Homo sapiens, UniProt O14842) (assay: Cell-Based Aequorin Assay (agonistic activity)). Settings: 1 μM test compound; percentage of the activity of the reference agonist at its EC100 concentration.
T1 construct: expressed in transfected cells
Protocol: <In Vitro Assay 1> Cell-Based Aequorin Assay
Recombinant cells grown 18 h prior to the test in media without antibiotics were detached by gentle flushing with PBS-EDTA (5 mM EDTA), recovered by centrifugation and resuspended in “assay buffer” (DMEM/HAM's F12 with HEPES+0.1% BSA fatty-acid free). Cells were incubated at room temperature for at least 4 h with Coelenterazine (Molecular Probes). Dose response curves with the reference compounds were performed before testing the compounds.
For agonistic activity testing, 50 μL of cell suspension was injected on 96-well plates with plated 50 μL of test compounds or reference agonist. The resulting emission of light was recorded using the Hamamatsu Functional Drug Screening System 6000 (FDSS 6000).
To standardize the emission of recorded light (determination of the “100% signal”) across plates and across different experiments, some of the wells contained the reference agonist at its EC100 obtained during the test validation. Agonistic activities of test compounds were expressed as a percentage of the activity of the reference agonist at its EC100 concentration.

T1 sequence (O14842 whole entry): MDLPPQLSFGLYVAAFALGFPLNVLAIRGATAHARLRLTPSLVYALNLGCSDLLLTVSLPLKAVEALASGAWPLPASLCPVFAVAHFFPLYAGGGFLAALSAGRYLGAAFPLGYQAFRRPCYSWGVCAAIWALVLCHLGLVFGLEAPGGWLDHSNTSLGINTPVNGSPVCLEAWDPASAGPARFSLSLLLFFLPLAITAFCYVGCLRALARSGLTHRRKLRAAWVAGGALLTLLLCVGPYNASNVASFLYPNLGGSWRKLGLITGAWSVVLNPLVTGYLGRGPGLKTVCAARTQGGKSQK

SMILES	Agonistic activity (%, 1 μM)
Cc1cc(OCCCS(C)(=O)=O)cc(C)c1-c1cccc(COc2ccc3c(c2)OC[C@H]3CC(=O)O)c1 [Comparative Example 1, reference compound]	+++ (+++: over 70)
CC#C[C@@H](CC(=O)O)c1ccc(O[C@@H]2CCc3c(-c4ccc(OC5CCS(=O)(=O)CC5)nc4)ccc(F)c32)cc1 [Example 1, (S)-3-(4-(((R)-4-(6-((1,1-Dioxidotetrahydro-2H-thiopyran-4-yl)oxy)pyridin-3-VI)-7-fluoro-2,3-dihydro-1H-inden-1-yl)oxy)phenyl)hex-4-ynoic acid]	+ (+: under 40)
CC#C[C@@H](CC(=O)O)c1ccc(O[C@@H]2CCc3c(-c4ccc(OCCN5CCS(=O)(=O)CC5)nc4)ccc(F)c32)cc1 [Example 3, (S)-3-(4-(((R)-4-(6-(2-(1,1-Dioxidothiomorpholino)ethoxy)pyridin-3-yl)-7-fluoro-2,3-dihydro-1H-inden-1-yl)oxy)phenyl)hex-4-ynoic acid]	+ (+: under 40)
CC#C[C@@H](CC(=O)O)c1ccc(O[C@@H]2CCc3c(-c4ccc(O[C@@H]5CCOC5)nc4)ccc(F)c32)cc1 [Example 5, (S)-3-(4-(((R)-7-Fluoro-4-(6-(((R)-tetrahydrofuran-3-yl)oxy)pyridin-3-yl)-2,3-dihydro-1H-inden-1-yl)oxy)phenyl)hex-4-ynoic acid]	+++ (+++: over 70)
CC#C[C@@H](CC(=O)O)c1ccc(O[C@@H]2CCc3c(-c4ccc(OC5CCOCC5)nc4)ccc(F)c32)cc1 [Example 6, (S)-3-(4-(((R)-7-Fluoro-4-(6-((tetrahydro-2H-pyran-4-yl)oxy)pyridin-3-yl)-2,3-dihydro-1H-inden-1-yl)oxy)phenyl)hex-4-ynoic acid]	+++ (+++: over 70)
CC#C[C@@H](CC(=O)O)c1ccc(O[C@@H]2CCc3c(-c4ccc(O[C@H]5CCOC5)nc4)ccc(F)c32)cc1 [Example 7, (S)-3-(4-(((R)-7-Fluoro-4-(6-(((S)-tetrahydrofuran-3-yl)oxy)pyridin-3-yl)-2,3-dihydro-1H-inden-1-yl)oxy)phenyl)hex-4-ynoic acid]	+++ (+++: over 70)
CC#C[C@@H](CC(=O)O)c1ccc(O[C@@H]2CCc3c(-c4cnc(O[C@@H]5CCOC5)cc4C)ccc(F)c32)cc1 [Example 8, (S)-3-(4-(((R)-7-Fluoro-4-(4-methyl-6-(((R)-tetrahydrofuran-3-yl)oxy)pyridin-3-yl)-2,3-dihydro-1H-inden-1-yl)oxy)phenyl)hex-4-ynoic acid]	++ (++: 40-70)
CC#C[C@@H](CC(=O)O)c1ccc(O[C@@H]2CCc3c(-c4cncc(O[C@@H]5CCOC5)c4)ccc(F)c32)cc1 [Example 15, (S)-3-(4-(((R)-7-Fluoro-4-(5-(((R)-tetrahydrofuran-3-yl)oxy)pyridin-3-yl)-2,3-dihydro-1H-inden-1-yl)oxy)phenyl)hex-4-ynoic acid]	++ (++: 40-70)
CC#C[C@@H](CC(=O)O)c1ccc(O[C@@H]2CCc3c(-c4cncc(OC5CCOCC5)c4)ccc(F)c32)cc1 [Example 16, (S)-3-(4-(((R)-7-Fluoro-4-(5-((tetrahydro-2H-pyran-4-yl)oxy)pyridin-3-yl)-2,3-dihydro-1H-inden-1-yl)oxy)phenyl)hex-4-ynoic acid]	++ (++: 40-70)
CC#C[C@@H](CC(=O)O)c1ccc(O[C@@H]2CCc3c(-c4cnc(OC5CCOCC5)c(Cl)c4)ccc(F)c32)cc1 [Example 17, (S)-3-(4-(((R)-4-(5-Chloro-6-((tetrahydro-2H-pyran-4-yl)oxy)pyridin-3-yl)-7-fluoro-2,3-dihydro-1H-inden-1-yl)oxy)phenyl)hex-4-ynoic acid]	+++ (+++: over 70)
CC#C[C@@H](CC(=O)O)c1ccc(O[C@@H]2CCc3c(-c4cnc(O[C@@H]5CCOC5)c(C#N)c4)ccc(F)c32)cc1 [Example 18, (S)-3-(4-(((R)-4-(5-Cyano-6-(((R)-tetrahydrofuran-3-yl)oxy)pyridin-3-yl)-7-fluoro-2,3-dihydro-1H-inden-1-yl)oxy)phenyl)hex-4-ynoic acid]	+++ (+++: over 70)
CC#C[C@@H](CC(=O)O)c1ccc(O[C@@H]2CCc3c(-c4cnc(OC5CCOCC5)c(C#N)c4)ccc(F)c32)cc1 [Example 19, (S)-3-(4-(((R)-4-(5-Cyano-6-((tetrahydro-2H-pyran-4-yl)oxy)pyridin-3-yl)-7-fluoro-2,3-dihydro-1H-inden-1-yl)oxy)phenyl)hex-4-ynoic acid]	+++ (+++: over 70)
CC#C[C@@H](CC(=O)O)c1ccc(O[C@@H]2CCc3c2ccc(C#N)c3-c2ccc(O[C@@H]3CCOC3)nc2)cc1 [Example 20, (S)-3-(4-(((R)-5-Cyano-4-(6-(((R)-tetrahydrofuran-3-yl)oxy)pyridin-3-yl)-2,3-dihydro-1H-inden-1-yl)oxy)phenyl)hex-4-ynoic acid]	+++ (+++: over 70)
CC#C[C@@H](CC(=O)O)c1ccc(O[C@@H]2CCc3c2ccc(F)c3-c2ccc(O[C@@H]3CCOC3)nc2)cc1 [Example 21, (S)-3-(4-(((R)-5-Fluoro-4-(6-(((R)-tetrahydrofuran-3-yl)oxy)pyridin-3-yl)-2,3-dihydro-1H-inden-1-yl)oxy)phenyl)hex-4-ynoic acid]	+++ (+++: over 70)
CC#C[C@@H](CC(=O)O)c1ccc(O[C@@H]2CCc3c2ccc(F)c3-c2ccc(OC3CCOCC3)nc2)cc1 [Example 24, (S)-3-(4-(((R)-5-Fluoro-4-(6-((tetrahydro-2H-pyran-4-yl)oxy)pyridin-3-yl)-2,3-dihydro-1H-inden-1-yl)oxy)phenyl)hex-4-ynoic acid]	+++ (+++: over 70)
